Source: PubChem BioAssay AID330 (DTP/NCI, 2004)
“And” between values parts separate entries of the source, which are not always exact repeats. Identical values can stand only once. Toxic doses and inconclusive results are not listed. Rule for the calls: active = survival T/C of 150% or more; inactive = T/C below 125% in these data.

Test system: P388 leukemia ip, CD2F1 mice, survival T/C
Assay: NCI In Vivo Anticancer Drug Screen. Data for tumor model P388 Leukemia (intraperitoneal) in CD2F1 (CDF1) mice
Conditions: endpoint: median survival time, higher = longer survival
Outline: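 Mice carrying the transplanted tumor received test compound or vehicle. Survival was recorded in each group, and the value is the treated-group measurement divided by that of the vehicle-treated control group.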

[1] = dose: 60.0 mg/kg/injection, schedule: Q01DX005 (ip), vehicle: saline
[2] = dose: 120.0 mg/kg/injection, schedule: Q01DX005 (ip), vehicle: saline
[3] = dose: 240.0 mg/kg/injection, schedule: Q01DX005 (ip), vehicle: saline
[4] = dose: 50.0 mg/kg/injection, schedule: Q01DX009 (ip), vehicle: saline
[5] = dose: 100.0 mg/kg/injection, schedule: Q01DX009 (ip), vehicle: saline
[6] = dose: 200.0 mg/kg/injection, schedule: Q01DX009 (ip), vehicle: saline
[7] = dose: 25.0 mg/kg/injection, schedule: Q01DX009 (ip), vehicle: saline with Tween-80
[8] = dose: 50.0 mg/kg/injection, schedule: Q01DX005 (ip), vehicle: Klucel (hydroxypropylcellulose) (HPC)
[9] = dose: 100.0 mg/kg/injection, schedule: Q01DX005 (ip), vehicle: Klucel (hydroxypropylcellulose) (HPC)
[10] = dose: 100.0 mg/kg/injection, schedule: Q04DX003 (ip), vehicle: saline
[11] = dose: 200.0 mg/kg/injection, schedule: Q04DX003 (ip), vehicle: saline
[12] = dose: 50.0 mg/kg/injection, schedule: Q01DX005 (ip), vehicle: saline with Tween-80
[13] = dose: 100.0 mg/kg/injection, schedule: Q01DX005 (ip), vehicle: saline with Tween-80
[14] = dose: 60.0 mg/kg/injection, schedule: Q01DX005 (ip), vehicle: saline with Tween-80
[15] = dose: 120.0 mg/kg/injection, schedule: Q01DX005 (ip), vehicle: saline with Tween-80
[16] = dose: 240.0 mg/kg/injection, schedule: Q01DX005 (ip), vehicle: saline with Tween-80
[17] = dose: 200.0 mg/kg/injection, schedule: Q01DX005 (ip), vehicle: saline with Tween-80

Measured: T/C

CCOC(C#CC(C)=O)OCC
inactive: [1] 106 % of control | [2] 103 % of control | [3] 103 % of control

CCCCCCCCCCCC(=O)N(C)CCOC(=O)C(C)(C)C
inactive: [4] 106 % of control | [5] 98 % of control | [6] 116 % of control

O=C(c1cccnc1)N(Cc1ccccc1)C(=O)c1cccnc1
inactive: dose: 25.0 mg/kg/injection, schedule: Q01DX001 (ip), vehicle: saline with Tween-80 99 % of control | dose: 50.0 mg/kg/injection, schedule: Q01DX001 (ip), vehicle: saline with Tween-80 106 % of control | dose: 100.0 mg/kg/injection, schedule: Q01DX001 (ip), vehicle: saline with Tween-80 100 % of control | dose: 200.0 mg/kg/injection, schedule: Q01DX001 (ip), vehicle: saline with Tween-80 106 % of control

O[C@]12CC=CC[C@]1(O)CC(N1CCCCC1)C2
inactive: dose: 12.5 mg/kg/injection, schedule: Q01DX009 (ip), vehicle: saline with Tween-80 100 % of control | [7] 120 % of control and 93 % of control | dose: 50.0 mg/kg/injection, schedule: Q01DX009 (ip), vehicle: saline with Tween-80 100 % of control and 111 % of control | dose: 100.0 mg/kg/injection, schedule: Q01DX009 (ip), vehicle: saline with Tween-80 93 % of control

CNC(=N)c1ccc(NC(=N)c2ccc(NC(=N)c3ccc(NC(=O)Nc4ccc(C(=N)Nc5ccc(C(=N)Nc6ccc(C(=N)NC)cc6)cc5)cc4)cc3)cc2)cc1
inactive: dose: 1.78 mg/kg/injection, schedule: Q04DX003 (ip), vehicle: saline with Tween-80 108 % of control | dose: 2.66 mg/kg/injection, schedule: Q04DX003 (ip), vehicle: saline with Tween-80 108 % of control | dose: 4.0 mg/kg/injection, schedule: Q04DX003 (ip), vehicle: saline with Tween-80 116 % of control

Oc1cc(CN2CCCCC2)c(O)cc1CN1CCCCC1
inactive: dose: 3.12 mg/kg/injection, schedule: Q01DX009 (ip), vehicle: saline 106 % of control | dose: 6.25 mg/kg/injection, schedule: Q01DX009 (ip), vehicle: saline 106 % of control | dose: 12.5 mg/kg/injection, schedule: Q01DX009 (ip), vehicle: saline 98 % of control | dose: 25.0 mg/kg/injection, schedule: Q01DX009 (ip), vehicle: saline 104 % of control

COc1c2c(c(C)c3ccc4ccccc4c13)CCN=C2
inactive: [8] 103 % of control | [9] 102 % of control | dose: 200.0 mg/kg/injection, schedule: Q01DX005 (ip), vehicle: Klucel (hydroxypropylcellulose) (HPC) 113 % of control

Cc1ccc(S(=O)(=O)OC2CCN(C)CC2)cc1
inactive: dose: 25.0 mg/kg/injection, schedule: Q04DX003 (ip), vehicle: saline 113 % of control | dose: 50.0 mg/kg/injection, schedule: Q04DX003 (ip), vehicle: saline 102 % of control | [10] 99 % of control | [11] 104 % of control

CCOC(=O)Cn1/c(=N/N=C/c2ccc([N+](=O)[O-])o2)sc2cc(OC)ccc21
inactive: dose: 3.75 mg/kg/injection, schedule: Q01DX005 (ip), vehicle: saline with Tween-80 97 % of control | dose: 7.5 mg/kg/injection, schedule: Q01DX005 (ip), vehicle: saline with Tween-80 90 % of control | dose: 60.0 mg/kg/injection, schedule: Q01DX005 (ip), vehicle: Klucel (hydroxypropylcellulose) (HPC) 87 % of control | dose: 240.0 mg/kg/injection, schedule: Q01DX005 (ip), vehicle: Klucel (hydroxypropylcellulose) (HPC) 86 % of control

Cn1cnc2cc(N3CCOCC3)c([N+](=O)[O-])cc2c1=O
inactive: dose: 100.0 mg/kg/injection, schedule: Q04DX003 (ip), vehicle: Klucel (hydroxypropylcellulose) (HPC) 105 % of control | dose: 200.0 mg/kg/injection, schedule: Q04DX003 (ip), vehicle: Klucel (hydroxypropylcellulose) (HPC) 112 % of control | dose: 400.0 mg/kg/injection, schedule: Q04DX003 (ip), vehicle: Klucel (hydroxypropylcellulose) (HPC) 95 % of control

C=C1CCC2C(OC(=O)C2(O)COC(C)=O)C2C(=C)C(O)CC12 (stereo not given)
inactive: dose: 10.63 mg/kg/injection, schedule: Q01DX005 (ip), vehicle: Klucel (hydroxypropylcellulose) (HPC) 99 % of control | dose: 21.25 mg/kg/injection, schedule: Q01DX005 (ip), vehicle: Klucel (hydroxypropylcellulose) (HPC) 104 % of control | dose: 42.5 mg/kg/injection, schedule: Q01DX005 (ip), vehicle: Klucel (hydroxypropylcellulose) (HPC) 100 % of control | dose: 85.0 mg/kg/injection, schedule: Q01DX005 (ip), vehicle: Klucel (hydroxypropylcellulose) (HPC) 106 % of control | dose: 170.0 mg/kg/injection, schedule: Q01DX005 (ip), vehicle: Klucel (hydroxypropylcellulose) (HPC) 106 % of control

CCN(CC)CCN1CC(=O)N2Cc3ccccc3CN2C(=O)C1
inactive: [12] 101 % of control | [13] 104 % of control

CCOC(=O)c1ccc(NC(=O)Nc2ncccc2C)cc1
inactive: dose: 0.78 mg/kg/injection, schedule: Q01DX009 (ip), vehicle: saline with Tween-80 98 % of control | dose: 1.56 mg/kg/injection, schedule: Q01DX009 (ip), vehicle: saline with Tween-80 103 % of control | dose: 6.25 mg/kg/injection, schedule: Q01DX009 (ip), vehicle: saline with Tween-80 92 % of control | [7] 90 % of control | dose: 200.0 mg/kg/injection, schedule: Q01DX009 (ip), vehicle: saline with Tween-80 89 % of control

CCC(C)SSc1ccccc1C(=O)Nc1ccc(Cl)cc1 (stereo not given)
inactive: [14] 95 % of control | [15] 97 % of control | [16] 99 % of control

COC(=O)C(CCc1ccc([N+](=O)[O-])cc1)C(C)=O (stereo not given)
inactive: [1] 102 % of control | [2] 97 % of control | [3] 95 % of control

COC1OC(C)(C(OC)OC)CCC1C (stereo not given)
inactive: [12] 99 % of control | [13] 94 % of control | [17] 92 % of control

COC(=O)C1(CC(=O)C(c2ccccc2)c2ccccc2)NC(=S)NC(=O)C1C#N (stereo not given)
inactive: [1] 98 % of control | [2] 95 % of control | [3] 100 % of control

O=C1C(N2CC2)=C(N2CC2)C(=O)c2ncncc21
inactive: dose: 2.5 mg/kg/injection, schedule: Q01DX005 (ip), vehicle: saline 105 % of control | dose: 5.0 mg/kg/injection, schedule: Q01DX005 (ip), vehicle: saline 104 % of control and 113 % of control | dose: 10.0 mg/kg/injection, schedule: Q01DX005 (ip), vehicle: saline 107 % of control

Nc1nc(-c2cc(Cl)cc(Cl)c2)cc(-c2cc(-c3cc(Cl)cc(Cl)c3)nc(N)n2)n1
inactive: [14] 100 % of control | [15] 106 % of control | [16] 96 % of control

c1ccc(-[n+]2ccc(-c3cc[n+](-c4ccccc4)cc3)cc2)cc1
inactive: dose: 100.0 mg/kg/injection, schedule: Q04DX002 (ip), vehicle: Klucel (hydroxypropylcellulose) (HPC) 97 % of control

CN(C)[C@@H]1C(=O)C(C(N)=O)=C(O)[C@@]2(O)C(=O)C3=C(O)c4c(O)ccc(Cl)c4[C@@](C)(O)[C@H]3C[C@@H]12
inactive: [10] 104 % of control | [11] 113 % of control

COP(=O)(O)OC.[V]
inactive: dose: 50.0 mg/kg/injection, schedule: Q04DX003 (ip), vehicle: saline with Tween-80 96 % of control | dose: 100.0 mg/kg/injection, schedule: Q04DX003 (ip), vehicle: saline with Tween-80 103 % of control and 108 % of control | dose: 200.0 mg/kg/injection, schedule: Q04DX003 (ip), vehicle: saline with Tween-80 99 % of control

CCCCNCC(=O)Nc1cc(NC(=O)CNCCCC)c(C)c(NC(=O)CNCCCC)c1
inactive: [12] 100 % of control | [13] 104 % of control | [17] 100 % of control

COc1ccc(C2COc3cc(O)c(O)cc3C2)cc1 (stereo not given)
inactive: [14] 97 % of control | [15] 107 % of control | [16] 97 % of control

CC(=O)OCCS(CCOC(C)=O)=NS(=O)(=O)c1ccc(C)cc1
inactive: [4] 108 % of control | [5] 108 % of control | [6] 106 % of control

Cc1nn(C)pc1P(C)(=S)n1nc(N(C)C)np1 (stereo not given)
inactive: [8] 98 % of control | [9] 103 % of control

COC(=O)Nn1c(C)c(C(=O)Nc2ccc(OC)cc2)c(C(=O)OC)c1C
inactive: [14] 97 % of control | [15] 100 % of control | [16] 97 % of control
